Data set [1] has as its system PC3M-luc cells. Nature of the data set: Comparison of in situ luciferin formation and luciferin in PC3M-luc cells (intact and lysed). It counts as cell-based. The settings on record: inferred from intact versus lysed PC3M-luc cells. As to the method:
(§1) A Xenogen IVIS Spectrum instrument (Caliper Life Sciences, Hopkinton, Mass.) was used for bioluminescent imaging in all cellular experiments. PC3M-luc cells (kindly provided by Chris Contag, Stanford University) were cultured in Dulbecco's Modified Eagle Medium (DMEM) containing 10% Fetal Bovine Serum (FBS). Prior to assaying, cells were passed and plated (1.3-1.5×10^4 cells/well) in black 96-well plates with clear bottoms (Becton Dickinson and Company, Franklin Lakes, N.J.). Once the cells were ca. 95% confluent, reagents were added for bioluminescent assays.
PC3M-luc cells prepared as described above were washed with HBSS (25 mM glucose) prior to addition of HCBT and D-cysteine (0-500 μM, 1% DMSO) or luciferin (0-500 μM, 1% DMSO) in HBSS (25 mM glucose). For experiments with lysed cells, 100 μL Glo lysis buffer (Promega, Madison, Wis.) was incubated with the PC3M-luc cells for 5 min prior to addition of HCBT and D-cysteine or luciferin. The plates were immediately imaged for 2 h to determine the peak bioluminescent signal produced.

Data set [2] concerns PC3M-luc cells. Nature of the data set: Lifetime of HCBT and D-cysteine in PC3M-luc cells. It counts as cell-based. The conditions noted are these: 100 μM, 30 min incubation, wash, complementary reagent after 0-60 min. As to the method: as §1
The medium was removed from PC3M-luc cells prepared as described above, and HCBT (100 μM, 1% DMSO) or D-cysteine (100 μM, 1% PBS) in DMEM (-FBS) was added. After a 30 min incubation, the HCBT or D-cysteine was removed, the cells were washed with DMEM (-FBS), and fresh DMEM was added. After 0, 15, 30, 45, or 60 min, the second component of luciferin, D-cysteine (100 μM final concentration, 1% PBS) or HCBT (100 μM final concentration, 1% DMSO) in HBSS (25 mM glucose) was added, and the plate was immediately imaged for 2 h to determine the peak bioluminescent signal produced.

A further data set deals with T1, caspase 8 (Homo sapiens, UniProt Q14790).
T1 construct: purchased Sigma-Aldrich
Kind of data set: Selectivity assay for IETDC: caspase 8. Format: biochemical. As to the method:
(§2) Millipore water was used to prepare all aqueous solutions. Luciferase (100 μg/mL) in 50 mM Tris buffer, pH 7.4, with 10 mM MgCl2, 0.1 mM ZnCl2, and 2 mM ATP was added to selectivity assay samples (described below) to determine the relative amount of luciferin formed during incubation. Measurements for bioluminescent assays were performed at 37° C. and were recorded using a Molecular Devices SpectraMax M2 plate reader (Sunnyvale, Calif.). Samples for bioluminescent measurements were placed in white, opaque 96-well plates, which were purchased from Corning Inc. (Corning, N.Y.). ATP was purchased from MP Biomedicals (Solon, Ohio) or Sigma-Aldrich (St. Louis, Mo.), and luciferase was purchased from Promega (Madison, Wis.). Caspase enzymes were purchased from Sigma-Aldrich (St. Louis, Mo.), and caspase inhibitors were purchased from MP Biomedicals (Solon, Ohio).
For determination of caspase selectivity, various caspases (3 and 8:1 unit, 9:0.001 unit) were administered to IETDC or D-cysteine (5 μM) in Tris buffer (50 mM, pH 7.4). […] After each enzyme was incubated with IETDC or D-cysteine for 60 min, 100 μL of a Tris buffer (50 mM, pH 7.4) containing luciferase (100 μg/mL), 10 mM MgCl2, 0.1 mM ZnCl2, and 2 mM ATP was added to 100 μL of the IETDC or D-cysteine solutions and the bioluminescent signal was detected.

The nature of data set [3]: Exogenous H2O2 experiments in mice. Format: in vivo. The conditions noted are these: for Turn-on: PCL-1 0.5 μmol. The source says: (§3) A Xenogen IVIS Spectrum instrument (Caliper Life Sciences, Hopkinton, Mass.) was used for bioluminescent imaging in all animal experiments. Mice were anesthetized prior to injection and during imaging via inhalation of isoflurane. Phosphate Buffered Saline (PBS) was purchased from Thermo Fisher Scientific (Waltham, Mass.), and saline (0.9%) was made from sodium chloride and Millipore water. Isoflurane was purchased from Phoenix Pharmaceuticals, Inc. (St. Joseph, Mo.), and pharmaceutical grade DMSO was purchased from Sigma-Aldrich (St. Louis, Mo.). Medical grade oxygen was purchased from Praxair (Danbury, Conn.).
(§4) FVB-luc^+ (FVB-Tg(CAG-luc,-GFP)L2G85Chco/J) mice were bred at UC Berkeley, and were single or group-housed on a 12:12 light-dark cycle at 22° C. with free access to food and water. All studies were approved and performed according to the guidelines of the Animal Care and Use Committee of the University of California, Berkeley.
Unshaven, male FVB-luc^+ mice were anesthetized with isoflurane and injected IP with a mixture of PCL-2 and D-cysteine (0.05 μmol each, in 50 μL of 1:1 DMSO:PBS), followed immediately by an IP injection of H2O2 (0-4.5 μmol in 100 μL of PBS). Control mice were injected IP with a mixture of HCBT and D-cysteine (0.01 μmol each, in 50 μL of 1:1 DMSO:PBS) immediately prior to H2O2 (4.5 μmol in 100 μL of PBS). Following injections, mice were imaged with an IVIS Spectrum.

A short description of data set [4]: Selectivity assays for dual H2O2 and caspase 8 detection in vitro. It counts as biochemical. The settings on record: for effect of a single inhibitor on the dual-analyte signal: catalase 1 unit or Q-VD-OPh 10 μM, with H2O2 and caspase 8; for effect of both inhibitors together on the dual-analyte signal: catalase 1 unit plus Q-VD-OPh 10 μM combined; for interference with in situ luciferin formation from HCBT and D-cysteine: catalase 1 unit, Q-VD-OPh 10 μM. As to the method:
as §2
To quench H2O2 immediately, catalase (1 unit) was subsequently added to some of the solutions. After 60 min, catalase (1 unit) was added to all other solutions containing H2O2 to quench any remaining H2O2. Subsequently, caspase 8 (1 unit) was added to the solutions in the presence or absence of the caspase inhibitor, Q-VD-OPh (10 μM), 15 min prior to IETDC (10 μM) or D-cysteine (5 μM) addition. Following IETDC or D-cysteine addition, the solutions were incubated for 60 min. Additionally, dithiothreitol (1 mM) was added to all solutions at the time of caspase 8 addition to maintain the reduced state of the D-cysteine. To monitor luciferin formation, 100 μL of a Tris buffer (50 mM, pH 7.4) containing luciferase (100 μg/mL), 10 mM MgCl2, 0.1 mM ZnCl2, and 2 mM ATP was added to 100 μL of the PCL-2/IETDC or HCBT/D-cysteine solutions and the bioluminescent signal was detected.

Data set [5] is described as follows: Lipopolysaccharide inflammation model, H2O2 detection with PCL-2. It counts as in vivo, mice. The conditions noted are these: apocynin 10 mg/kg IP, LPS-treated mice.
Source text: as §3, §4
Unshaven, female FVB-luc^+ mice, aged 2-5 months, were anesthetized with isoflurane and injected IP with lipopolysaccharides (LPS, 3 mg/kg in 50 μL of saline) or saline (50 μL). For studies with PCL-2 alone, mice were injected IP with either apocynin (10 mg/kg in 20 μL of DMSO) or DMSO (20 μL) 6 h after LPS injection. […]

For another data set, the system named is FVB-luc^+ mice. Kind of data set: Control: effect of inhibitors and antioxidants on HCBT and D-cysteine luciferin signal in mice. It counts as in vivo. As to the method: (a) Total photon fluxes, 0-15 min post-injection, for mice (n=3) injected with apocynin (IP, 10 mg/kg in 20 μL DMSO) or vehicle (IP, 20 μL DMSO) two min prior to injections of a mixture of HCBT and D-cysteine (IP, 0.01 μmol each, in 50 μL of 1:1 DMSO:PBS). (b) Total photon fluxes, 15-45 min post-injection, for mice (n=3) injected with z-VD(OMe)-OPh (IP, 1 μmol in 20 μL DMSO) or vehicle (IP, 20 μL DMSO) 30 min prior to injections of a mixture of HCBT and D-cysteine (IP, 0.01 μmol each, in 50 μL of 1:1 DMSO:PBS). Error bars are ±SEM.
FIG. 18 depicts bioluminescent signals from HCBT and D-cysteine with ascorbic acid in FVB-luc^+ mice. Total photon fluxes, 30-60 min post-injection, for mice (n=3-4) injected with ascorbic acid (IP, 200 mg/kg in 30 μL saline) or vehicle (IP, 30 μL saline) 4.5 h prior to injections of a mixture of HCBT and D-cysteine (IP, 0.01 μmol each, in 50 μL of 1:1 DMSO:PBS). Error bars are ±SEM.

Another data set has as its system H2O2 and caspase 8. Nature of the data set: Lipopolysaccharide inflammation model, dual detection with PCL-2 and IETDC. Format: in vivo. The conditions noted are these: ascorbic acid 200 mg/kg and z-VD-OPh 1 μmol used together, LPS-treated mice.
Source text: as §3, §4
For studies with PCL-2 and IETDC, mice were injected IP with ascorbic acid (200 mg/kg in 30 μL of saline) or the saline vehicle (30 μL) 30 min prior to IP injection of LPS (3 mg/kg in 50 μL of saline) or saline (50 μL). Two hours after injection of LPS, z-VD(OMe)-OPh (1 μmol in 20 μL of DMSO) or the vehicle, DMSO (20 μL), was injected IP. […]

Data set [6] can be described thus: Selectivity assay for PCL-2: response to H2O2. Format: biochemical. The settings on record: H2O2 100 μM and catalase 0.4 mg/mL. As to the method: as §2
Various ROS (100 μM) were administered to PCL-2 or HCBT (5 μM) in Tris buffer (50 mM, pH 7.4) with or without 10 mM MgCl2 and 0.1 mM ZnCl2. […] After an additional 15 min incubation, 100 μL of a Tris buffer (50 mM, pH 7.4) containing luciferase (100 μg/mL), 10 mM MgCl2, 0.1 mM ZnCl2, and 2 mM ATP was added to 100 μL of the PCL-2 or HCBT solutions and the bioluminescent signal was detected.

T1 sequence (Q14790 217-374 limits assumed, species assumed): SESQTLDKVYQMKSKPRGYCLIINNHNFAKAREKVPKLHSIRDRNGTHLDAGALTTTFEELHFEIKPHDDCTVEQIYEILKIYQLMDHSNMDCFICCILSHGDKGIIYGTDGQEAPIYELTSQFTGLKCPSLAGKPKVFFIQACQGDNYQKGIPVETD
T1 sequence (Q14790 385-479 limits assumed, species assumed): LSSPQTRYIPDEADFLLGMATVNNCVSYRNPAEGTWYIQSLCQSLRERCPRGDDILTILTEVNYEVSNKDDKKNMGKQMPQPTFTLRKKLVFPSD

As for `N[C@H](CS)C(=O)O` [D-cysteine], the “permeability across the cell membrane compared to luciferin” value with PC3M-luc cells [1] is recorded as “increased permeability”. Besides, the “cellular lifetime: signal as time between removal and addition of the complementary reagent increases” value with PC3M-luc cells [2] was “still fully available for reaction with HCBT”. For the same compound, at caspase 8 (D-cysteine 5 μM with HCBT, caspases 8, 3, 9), the “change in bioluminescent signal on incubation with caspase enzymes” value is “no change in bioluminescent signal”.

For `O=C(O)[C@H]1CSC(c2nc3ccc(OCc4ccc(B(O)O)cc4)cc3s2)=N1` [PCL-1], the figures for the Turn-on in data set [3] (H2O2 0.037 μmol), in data set [3] (H2O2 0.15 μmol) and in data set [3] (H2O2 0.6 μmol) were 1.5-fold, 2.0-fold and 2.7-fold, respectively. The “detection limit for H2O2 in vivo” value in [3] (IP, FVB-luc^+ mice, optimized imaging conditions for each probe) came out at 0.037 µmol.

As to `CC(C)[C@H](NC(=O)c1ccc2ccccc2n1)C(=O)N[C@@H](CC(=O)O)C(=O)COc1c(F)cccc1F` [Q-VD-OPh], on caspase 8 (Q-VD-OPh 10 μM), the “effect of caspase inhibitor on the response of IETDC to caspase 8” value is “complete attenuation”. Moreover, in data set [4], the “effect of a single inhibitor on the dual-analyte signal” value is recorded as “attenuated the increase in signal”; the “effect of both inhibitors together on the dual-analyte signal” value was “complete attenuation of signal”; the “interference with in situ luciferin formation from HCBT and D-cysteine” value is given as “did not interfere with in situ luciferin formation”.

Turning to `COc1cc(C(C)=O)ccc1O` [apocynin], the “reduction in PCL-2 signal upon treatment” value in [5] was found to be 55%. Besides, the “effect on the luciferin signal from HCBT and D-cysteine in vivo” value with FVB-luc^+ mice (apocynin 10 mg/kg or z-VD-OPh 1 μmol IP, HCBT and D-cysteine 0.01 μmol each) was “do not alter the luciferin signal”.

As to `O=C1O[C@H]([C@@H](O)CO)C(O)=C1O` [ascorbic acid], the “decrease in dual-probe bioluminescent signal” value with H2O2 and caspase 8 is given as 30%. Besides, the “effect on the bioluminescent signal from HCBT and D-cysteine” value in the data set with FVB-luc^+ mice (ascorbic acid 200 mg/kg IP 4.5 h before HCBT and D-cysteine 0.01 μmol each) is “did not impact the bioluminescent signal”.

On to catalase, for which the “effect of catalase on the H2O2 turn-on signal of PCL-2” value in [6] is recorded as “attenuated”. Further, in data set [4], the “effect of a single inhibitor on the dual-analyte signal” value is “attenuated the increase in signal”; the “effect of both inhibitors together on the dual-analyte signal” value is “complete attenuation of signal”; the “interference with in situ luciferin formation from HCBT and D-cysteine” value is recorded as “did not interfere with in situ luciferin formation”.

The values are drawn from patent US10328161B2, “Luciferin derivatives from bicyclic reactants and aminothiol derivatives and methods of use thereof” (The Regents of the University of California, priority 2012, dated 2019).
